For one data set, the target named is 2C9 (Homo sapiens, UniProt P11712). As to the kind of experiment: inhibition of human liver cytochrome P450 2C9. Format: in vitro ADME. The following applies: human liver cytochrome P450 isoenzyme.
Another data set concerns the target 3A4 (Homo sapiens, UniProt P08684). As to the kind of experiment: inhibition of human liver cytochrome P450 3A4. Format: in vitro ADME. The following applies: human liver cytochrome P450 isoenzyme.
The nature of data set [1]: 4-week repeat dose toxicity in the dog. Format: in vivo.
Data set [2] has as its system human cord blood (CB) CD34^+ cells. As to the kind of experiment: differentiation of human cord blood CD34+ cells to megakaryocytes. Format: cell-based. The following applies: concentration-dependent; maximum effect similar to that of rhTPO.
For the next data set, the system named is liver microsomal enzymes. In words: metabolism by mouse liver microsomal enzymes. Format: in vitro ADME. For orientation: Liver microsomes are vesicles of endoplasmic reticulum, rich in cytochrome P450 enzymes.
Data set [3] can be described thus: in-vitro plasma protein binding, mice. The note with it: mouse, 0.05 to 50 μg/mL. It is filed as in vitro ADME. On the procedure:
The in-vitro plasma protein binding of the drug of Formula I was independent of concentration over the concentration range of 0.05 to 50 μg/mL and was 87.2-89.1% in mice; 87.6-89.2% in rats; 88.3-92.0% in rabbits; […] in dogs; 97.0-97.6% in monkeys; and 96.3-96.6% in humans.

Data set [4] has as its system human hematopoietic progenitor cells. As to the kind of experiment: differentiation of hematopoietic progenitor cells other than megakaryocytic lineage. Format: cell-based.
In a further data set the target is T1, CYP1A2 (Homo sapiens, UniProt P05177).
T1 sequence (P05177 1-516): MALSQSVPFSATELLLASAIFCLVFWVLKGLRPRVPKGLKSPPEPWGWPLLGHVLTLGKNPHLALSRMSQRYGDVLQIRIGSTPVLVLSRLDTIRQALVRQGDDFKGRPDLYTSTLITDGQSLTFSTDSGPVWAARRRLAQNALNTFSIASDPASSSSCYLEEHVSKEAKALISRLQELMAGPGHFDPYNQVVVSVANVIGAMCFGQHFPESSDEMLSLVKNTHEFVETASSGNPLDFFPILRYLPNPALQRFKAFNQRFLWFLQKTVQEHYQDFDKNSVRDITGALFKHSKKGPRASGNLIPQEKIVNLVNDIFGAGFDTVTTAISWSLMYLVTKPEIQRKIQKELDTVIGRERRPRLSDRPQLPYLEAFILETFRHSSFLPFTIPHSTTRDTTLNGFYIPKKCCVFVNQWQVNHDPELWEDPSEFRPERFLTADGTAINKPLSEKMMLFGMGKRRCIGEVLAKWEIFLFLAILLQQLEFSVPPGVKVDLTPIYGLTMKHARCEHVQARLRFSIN
In words: inhibition of human liver cytochrome P450 CYP1A2. It is filed as in vitro ADME. The following applies: human liver cytochrome P450 isoenzyme.

The next data set concerns platelet count. In words: Example 2 multi-dose study: pharmacodynamics (platelet count). It is filed as in vivo, human. The procedure: A double-blind, placebo-controlled, dose rising study was performed in healthy male and female volunteers. Each dose cohort received either placebo or active treatment as an oral suspension once daily for fourteen (14) consecutive days. The dose of study drug was prepared and administered as described in Example 1 above. The doses administered in this multiple dose study were based on the safety and tolerability assessment of the doses administered in Example 1.
Based on the results of Example 1, the starting dose was 3 mg. Based on the safety and tolerability results from Example 1, the dose was scheduled to be escalated to 10, 20, 50 and 100 mg per day for 14 consecutive days. Successive dose cohorts were not treated until the previous cohort completed 14 days of treatment and the safety follow-up visit on Day 21.

A short description of data set [5]: 4-week repeat dose toxicity in rats. Format: in vivo, rat.

The values that follow come from US20110224226A1, “COMPOSITIONS AND METHODS FOR INCREASING BLOOD PLATELET LEVELS IN HUMANS” (AKARX, Inc., priority 2006, published 2011).

The structures appear in SMILES notation.

As usually defined, the fraction unbound is the share of the substance not bound to proteins or other matrix.

2C9, sequence (P11712 whole entry): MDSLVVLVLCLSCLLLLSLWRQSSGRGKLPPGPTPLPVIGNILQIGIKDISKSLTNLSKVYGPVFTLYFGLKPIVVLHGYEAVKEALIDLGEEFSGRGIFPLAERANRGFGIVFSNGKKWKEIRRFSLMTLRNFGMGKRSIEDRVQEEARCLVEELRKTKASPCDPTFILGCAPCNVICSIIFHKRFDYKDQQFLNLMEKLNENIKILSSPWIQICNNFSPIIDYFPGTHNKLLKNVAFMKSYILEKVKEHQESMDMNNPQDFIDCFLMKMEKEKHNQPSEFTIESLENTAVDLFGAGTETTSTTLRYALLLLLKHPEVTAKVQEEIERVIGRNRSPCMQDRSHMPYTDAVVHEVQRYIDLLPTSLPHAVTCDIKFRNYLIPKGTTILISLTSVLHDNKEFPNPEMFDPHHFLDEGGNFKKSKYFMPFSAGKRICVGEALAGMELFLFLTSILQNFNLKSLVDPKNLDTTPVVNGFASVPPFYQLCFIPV
3A4, sequence (P08684 whole entry): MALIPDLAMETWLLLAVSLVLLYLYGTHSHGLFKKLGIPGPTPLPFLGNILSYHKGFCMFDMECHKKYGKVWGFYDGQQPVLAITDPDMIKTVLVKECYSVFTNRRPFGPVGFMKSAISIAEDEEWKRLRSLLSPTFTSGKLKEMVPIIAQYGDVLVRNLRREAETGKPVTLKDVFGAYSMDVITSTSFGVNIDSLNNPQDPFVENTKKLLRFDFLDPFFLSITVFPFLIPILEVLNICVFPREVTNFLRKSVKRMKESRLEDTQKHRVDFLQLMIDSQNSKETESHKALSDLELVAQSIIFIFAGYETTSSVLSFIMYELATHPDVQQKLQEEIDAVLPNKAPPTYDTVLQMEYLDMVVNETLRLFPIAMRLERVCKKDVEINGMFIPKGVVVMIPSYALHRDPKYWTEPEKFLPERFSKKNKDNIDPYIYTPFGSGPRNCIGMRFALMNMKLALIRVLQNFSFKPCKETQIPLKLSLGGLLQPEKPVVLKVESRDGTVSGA

As for `O=C(Nc1nc(-c2cc(Cl)cs2)c(N2CCN(C3CCCCC3)CC2)s1)c1cnc(N2CCC(C(=O)O)CC2)c(Cl)c1` [Formula I, 1-(3-chloro-5-{[4-(4-chlorothiophen-2-yl)-5-(4-cyclohexylpiperazin-1-yl)thiazol-2-yl]carbamoyl}pyridin-2-yl)piperadine-4-carboxylic acid], the “inhibition of CYP2C9” value at 2C9 is “did not inhibit”. Further, the “inhibition of CYP3A4” value on 3A4 is given as “did not inhibit”. The muscle lesions result in data set [1] (any dose) is given as “No muscle lesions were observed”. Besides, the “renal findings at the end of the recovery period” value in data set [1] (high dose animals (100, 300 mg/kg/day), all other renal lesions resolved) is recorded as “regeneration of renal tubular epithelial persisted in the majority of the high dose animals”. In [1] (monomaleate salt, 10, 30, 100, 300 mg/kg/day for 4 weeks), the “microscopic changes in the cortex of the kidney” value was “epithelial cell regeneration of proximal tubules and interstitial subacute inflammation”. In data set [2], the “differentiation of human cord blood CD34+ cells to human megakaryocytes” value was “promotes the differentiation”. For the same compound, the “metabolism by liver microsomal enzymes” value with liver microsomal enzymes was “does not appear to be metabolized”. Moreover, the fraction unbound in data set [3] is 0.109 to 0.128. Further, the “differentiation of human hematopoietic progenitor cells other than those of megakaryocytic lineage” value in data set [4] is given as “did not promote the differentiation”. At CYP1A2, the “inhibition of CYP1A2” value is listed as “did not inhibit”. The “dose-concentration-response relationship for changes in platelet count” value with platelet count (3 mg to 20 mg dose range, repeat dosing) is recorded as “linear increases in platelet counts over baseline”. Further, the “day by which the revised PD limit (>500,000 platelets) occurred in all six (6) subjects” value with platelet count (20 mg cohort) was in the range of 10 to 11 days. Besides, the “dose cohort in which the original PD limit (five subjects with >50% increase in platelet count) was reached” value in the data set on platelet count (once daily dosing) amounted to 10 mg. The “platelet counts following repeat administration” value with platelet count (repeat administration of 10 mg and 20 mg) is “Statistically significant increases in platelet counts”. In data set [5] (rat, on drug withdrawal), the “reversibility of gastric mucosa changes” value is “resolved on drug withdrawal”. Further, in data set [5] (rat, repeat dosing 4 weeks), the “CK and aldolase levels” value was “Elevated levels of CK and aldolase”; the “muscle degeneration/necrosis in femoral, lower thigh or multifides muscles” value is reported as 1 or 2 rats per dose group. In addition, the “changes in the gastric mucosa” value in data set [5] (rats, repeat dosing 4 weeks, 3, 10, 30, 100 mg/kg/day) is “degeneration of chief cells and parietal cells”.
